Results from patent publication US20240101540A1, “TARGETED PROTEIN DEGRADATION OF PARP14 FOR USE IN THERAPY” (Ribon Therapeutics, Inc., priority 2022, published 2024).
Structures can show the parent of a compound that is named as a salt.

These compounds were tested against T1, HiBiT tagged PARP14 (Homo sapiens, UniProt Q460N5) (assay: HiBiT assay for the degradation of PARP14 (HiBiT tagged PARP14 in LgBiT expressing Jurkat cells, 2 or 24 hours)). Settings: Assay B (Example B): HiBiT tagged PARP14 degradation in LgBiT expressing Jurkat cells, read-out: DC50.
T1 construct: engineered to contain a HiBiT tag on both alleles of the PARP14 gene; endogenous in cells; host or cells: Jurkat cells stably transfected with LgBiT (Promega), PARP14 locus edited by CRISPR/Cas9
T1 sequence (Q460N5 whole entry): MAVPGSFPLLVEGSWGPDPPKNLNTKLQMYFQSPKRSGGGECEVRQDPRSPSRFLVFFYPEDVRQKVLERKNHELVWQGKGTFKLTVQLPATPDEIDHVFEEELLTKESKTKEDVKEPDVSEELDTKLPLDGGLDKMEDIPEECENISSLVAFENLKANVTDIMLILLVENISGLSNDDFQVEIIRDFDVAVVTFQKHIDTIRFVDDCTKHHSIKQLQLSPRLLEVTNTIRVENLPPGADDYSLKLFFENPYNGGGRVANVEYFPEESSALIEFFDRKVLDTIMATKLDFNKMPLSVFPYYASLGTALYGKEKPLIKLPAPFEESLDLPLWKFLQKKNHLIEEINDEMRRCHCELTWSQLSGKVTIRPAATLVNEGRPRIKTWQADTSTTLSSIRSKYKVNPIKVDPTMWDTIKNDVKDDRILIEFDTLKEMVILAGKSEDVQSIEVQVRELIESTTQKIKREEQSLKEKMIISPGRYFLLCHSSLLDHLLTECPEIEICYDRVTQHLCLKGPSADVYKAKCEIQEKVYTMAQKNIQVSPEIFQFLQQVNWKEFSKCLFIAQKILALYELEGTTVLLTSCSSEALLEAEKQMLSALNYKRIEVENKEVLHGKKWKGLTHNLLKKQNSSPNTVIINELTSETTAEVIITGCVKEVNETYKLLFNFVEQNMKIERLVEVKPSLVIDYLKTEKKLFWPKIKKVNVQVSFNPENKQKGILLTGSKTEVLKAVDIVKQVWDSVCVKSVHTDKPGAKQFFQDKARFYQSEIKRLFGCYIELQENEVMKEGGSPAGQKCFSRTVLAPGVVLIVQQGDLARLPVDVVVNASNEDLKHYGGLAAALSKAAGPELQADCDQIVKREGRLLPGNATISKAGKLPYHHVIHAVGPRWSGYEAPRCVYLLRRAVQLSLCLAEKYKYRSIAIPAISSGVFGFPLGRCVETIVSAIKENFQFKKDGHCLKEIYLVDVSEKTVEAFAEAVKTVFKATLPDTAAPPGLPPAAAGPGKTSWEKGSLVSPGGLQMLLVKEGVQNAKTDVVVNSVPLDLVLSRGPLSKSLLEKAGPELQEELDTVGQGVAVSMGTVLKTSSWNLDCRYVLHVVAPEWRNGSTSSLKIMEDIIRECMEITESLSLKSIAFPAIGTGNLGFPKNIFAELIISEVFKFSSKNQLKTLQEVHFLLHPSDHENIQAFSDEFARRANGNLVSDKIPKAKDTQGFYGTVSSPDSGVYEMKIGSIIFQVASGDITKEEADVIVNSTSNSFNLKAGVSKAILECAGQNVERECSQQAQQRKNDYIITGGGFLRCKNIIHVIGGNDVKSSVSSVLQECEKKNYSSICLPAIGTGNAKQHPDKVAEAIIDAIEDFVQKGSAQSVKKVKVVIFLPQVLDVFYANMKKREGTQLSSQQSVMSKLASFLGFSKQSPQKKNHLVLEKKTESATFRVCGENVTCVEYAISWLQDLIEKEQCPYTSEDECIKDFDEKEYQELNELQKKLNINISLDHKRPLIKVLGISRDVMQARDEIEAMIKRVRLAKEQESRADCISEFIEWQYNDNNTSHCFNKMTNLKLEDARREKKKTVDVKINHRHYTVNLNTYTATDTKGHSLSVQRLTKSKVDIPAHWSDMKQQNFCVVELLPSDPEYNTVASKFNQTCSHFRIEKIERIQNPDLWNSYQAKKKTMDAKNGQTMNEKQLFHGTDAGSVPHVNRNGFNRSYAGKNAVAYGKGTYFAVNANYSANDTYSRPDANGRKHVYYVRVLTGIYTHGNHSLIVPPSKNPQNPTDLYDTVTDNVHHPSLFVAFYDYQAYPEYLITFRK
Assay type: cell-based
In short: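 Jurkat cells stably expressing LgBiT with CRISPR knock-in of C-terminal HiBiT on both PARP14 alleles, 5,000 cells/well, treated with compound dose-response at 37 °C for 2 or 24 h. Live Cell Substrate luminescence normalised to 0.1% DMSO wells; DC50 from 4-parameter fit with floating top, bottom, Hill.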

Row | DC50 [nM] | Structure (SMILES)
1 | < 30 | Cn1nc(N2CCC(=O)NC2=O)c2cc(F)c(N3CCC(N4CCC(COc5cc(F)c6c(=O)[nH]c(COC7CCOCC7)nc6c5)CC4)CC3)cc21 [Example 160, 1-(5-fluoro-6-(4-(((5-fluoro-4-oxo-2-(((tetrahydro-2H-pyran-4-yl)oxy)methyl)-3,4-dihydroquinazolin-7-yl)oxy)methyl)-[1,4′-bipiperidin]-1′-yl)-1-methyl-1H-indazol-3-yl)dihydropyrimidine-2,4(1H,3H)-dione]
2 | < 30 | Cn1nc(N2CCC(=O)NC2=O)c2ccc(N3CCC(N4CC(N5CCC(COc6cc(F)c7c(=O)[nH]c(CSC8CCOCC8)nc7c6)CC5)C4)CC3)cc21 [Example 161, 1-(6-(4-(3-(4-(((5-fluoro-4-oxo-2-(((tetrahydro-2H-pyran-4-yl)thio)methyl)-3,4-dihydroquinazolin-7-yl)oxy)methyl)piperidin-1-yl)azetidin-1-yl)piperidin-1-yl)-1-methyl-1H-indazol-3-yl)dihydropyrimidine-2,4(1H,3H)-dione]
3 | < 30 | O=C1CCN(c2cncc3c(N4CCC(N5CCC(COc6cc(F)c7c(=O)[nH]c(CSC8CCOCC8)nc7c6)CC5)CC4)cccc23)C(=O)N1 [Example 162, 1-(8-(4-(((5-fluoro-4-oxo-2-(((tetrahydro-2H-pyran-4-yl)thio)methyl)-3,4-dihydroquinazolin-7-yl)oxy)methyl)-[1,4′-bipiperidin]-1′-yl)isoquinolin-4-yl)dihydropyrimidine-2,4(1H,3H)-dione]
4 | < 30 | Cn1nc(N2CCC(=O)NC2=O)c2cc(F)c(N3CCC(N4CCC(COc5cc(F)c6c(=O)[nH]c(CSC7CCOCC7)nc6c5)CC4)CC3)cc21 [Example 163, 1-(5-fluoro-6-(4-(((5-fluoro-4-oxo-2-(((tetrahydro-2H-pyran-4-yl)thio)methyl)-3,4-dihydroquinazolin-7-yl)oxy)methyl)-[1,4′-bipiperidin]-1′-yl)-1-methyl-1H-indazol-3-yl)dihydropyrimidine-2,4(1H,3H)-dione]
5 | < 30 | Cn1nc(N2CCC(=O)NC2=O)c2cc(F)c(N3CCC(N4CC(N5CCC(COc6cc(F)c7c(=O)[nH]c(CSC8CCOCC8)nc7c6)CC5)C4)CC3)cc21 [Example 164, 1-(5-fluoro-6-(4-(3-(4-(((5-fluoro-4-oxo-2-(((tetrahydro-2H-pyran-4-yl)thio)methyl)-3,4-dihydroquinazolin-7-yl)oxy)methyl)piperidin-1-yl)azetidin-1-yl)piperidin-1-yl)-1-methyl-1H-indazol-3-yl)dihydropyrimidine-2,4(1H,3H)-dione]
6 | < 30 | COc1cc(N2CCC(N3CC(N4CCC(COc5cc(F)c6c(=O)[nH]c(CSC7CCOCC7)nc6c5)CC4)C3)CC2)c(F)cc1N1CCC(=O)NC1=O [Example 166, 1-(5-fluoro-4-(4-(3-(4-(((5-fluoro-4-oxo-2-(((tetrahydro-2H-pyran-4-yl)thio)methyl)-3,4-dihydroquinazolin-7-yl)oxy)methyl)piperidin-1-yl)azetidin-1-yl)piperidin-1-yl)-2-methoxyphenyl)dihydropyrimidine-2,4(1H,3H)-dione]
7 | < 30 | O=C1CCN(c2cnc3cc(N4CCC(N5CC(N6CCC(COc7cc(F)c8c(=O)[nH]c(CSC9CCOCC9)nc8c7)CC6)C5)CC4)ccn23)C(=O)N1 [Example 167, 1-(7-(4-(3-(4-(((5-fluoro-4-oxo-2-(((tetrahydro-2H-pyran-4-yl)thio)methyl)-3,4-dihydroquinazolin-7-yl)oxy)methyl)piperidin-1-yl)azetidin-1-yl)piperidin-1-yl)imidazo[1,2-a]pyridin-3-yl)dihydropyrimidine-2,4(1H,3H)-dione]
8 | < 30 | O=C1CCN(c2cnc3cc(N4CCC(N5CC(N6CCC(COc7cc(F)c8c(=O)[nH]c(COC9CCOCC9)nc8c7)CC6)C5)CC4)ccn23)C(=O)N1 [Example 168, 1-(7-(4-(3-(4-(((5-fluoro-4-oxo-2-(((tetrahydro-2H-pyran-4-yl)oxy)methyl)-3,4-dihydroquinazolin-7-yl)oxy)methyl)piperidin-1-yl)azetidin-1-yl)piperidin-1-yl)imidazo[1,2-a]pyridin-3-yl)dihydropyrimidine-2,4(1H,3H)-dione]
9 | < 30 | O=C1CCC(N2C(=O)c3cccc4c(N5CCC(N6CC(N7CCC(COc8cc(F)c9c(=O)[nH]c(CSC%10CCOCC%10)nc9c8)CC7)C6)CC5)ccc2c34)C(=O)N1 (stereo not shown) [Example 169, 3-(6-(4-(3-(4-(((5-fluoro-4-oxo-2-(((tetrahydro-2H-pyran-4-yl)thio)methyl)-3,4-dihydroquinazolin-7-yl)oxy)methyl)piperidin-1-yl)azetidin-1-yl)piperidin-1-yl)-2-oxobenzo[cd]indol-1(2H)-yl)piperidine-2,6-dione]
10 | < 30 | O=C1CCC(Nc2ccc(N3CCC(N4CC(C(=O)N5CCC(COc6cc(F)c7c(=O)[nH]c(CSC8CCOCC8)nc7c6)CC5)C4)CC3)c(F)c2)C(=O)N1 (stereo not shown) [Example 171, 3-((3-fluoro-4-(4-(3-(4-(((5-fluoro-4-oxo-2-(((tetrahydro-2H-pyran-4-yl)thio)methyl)-3,4-dihydroquinazolin-7-yl)oxy)methyl)piperidine-1-carbonyl)azetidin-1-yl)piperidin-1-yl)phenyl)amino)piperidine-2,6-dione]

Further lines, the compound ahead of its results:

Row | Structure (SMILES) | DC50 [nM]
11 | O=C1CCC(Nc2ccc(N3CCC(C(=O)N4CCC(COc5cc(F)c6c(=O)[nH]c(CSC7CCOCC7)nc6c5)CC4)CC3)c(F)c2)C(=O)N1 (stereo not shown) [Example 153, 3-((3-fluoro-4-(4-(4-(((5-fluoro-4-oxo-2-(((tetrahydro-2H-pyran-4-yl)thio)methyl)-3,4-dihydroquinazolin-7-yl)oxy)methyl)piperidine-1-carbonyl)piperidin-1-yl)phenyl)amino)piperidine-2,6-dione] | < 30
12 | O=C1CCC(Nc2ccc(N3CCN(C(=O)N4CCC(COc5cc(F)c6c(=O)[nH]c(CSC7CCOCC7)nc6c5)CC4)CC3)c(F)c2)C(=O)N1 (stereo not shown) [Example 154, 3-((3-fluoro-4-(4-(4-(((5-fluoro-4-oxo-2-(((tetrahydro-2H-pyran-4-yl)thio)methyl)-3,4-dihydroquinazolin-7-yl)oxy)methyl)piperidine-1-carbonyl)piperazin-1-yl)phenyl)amino)piperidine-2,6-dione] | < 30
13 | Cn1nc(N2CCC(=O)NC2=O)c2ccc(N3CCC(N4CCC(COc5cc(F)c6c(=O)[nH]c(CSC7CCOCC7)nc6c5)CC4)CC3)cc21 [Example 155, 1-(6-(4-(((5-fluoro-4-oxo-2-(((tetrahydro-2H-pyran-4-yl)thio)methyl)-3,4-dihydroquinazolin-7-yl)oxy)methyl)-[1,4′-bipiperidin]-1′-yl)-1-methyl-1H-indazol-3-yl)dihydropyrimidine-2,4(1H,3H)-dione] | < 30
14 | Cn1nc(C2CCC(=O)NC2=O)c2ccc(N3CCC(N4CC(N5CCC(COc6cc(F)c7c(=O)[nH]c(CSC8CCOCC8)nc7c6)CC5)C4)CC3)cc21 (stereo not shown) [Example 156, 3-(6-(4-(3-(4-(((5-fluoro-4-oxo-2-(((tetrahydro-2H-pyran-4-yl)thio)methyl)-3,4-dihydroquinazolin-7-yl)oxy)methyl)piperidin-1-yl)azetidin-1-yl)piperidin-1-yl)-1-methyl-1H-indazol-3-yl)piperidine-2,6-dione] | < 30
15 | O=C1CCN(c2ccc(N3CCC(N4CC(N5CCC(COc6cc(F)c7c(=O)[nH]c(CSC8CCOCC8)nc7c6)CC5)C4)CC3)c(F)c2)C(=O)N1 [Example 157, 1-(3-fluoro-4-(4-(3-(4-(((5-fluoro-4-oxo-2-(((tetrahydro-2H-pyran-4-yl)thio)methyl)-3,4-dihydroquinazolin-7-yl)oxy)methyl)piperidin-1-yl)azetidin-1-yl)piperidin-1-yl)phenyl)dihydropyrimidine-2,4(1H,3H)-dione] | < 30
16 | O=C1CCN(c2ccc(N3CCC(N4CCC(COc5cc(F)c6c(=O)[nH]c(CSC7CCOCC7)nc6c5)CC4)CC3)c(F)c2)C(=O)N1 [Example 158, 1-(3-fluoro-4-(4-(((5-fluoro-4-oxo-2-(((tetrahydro-2H-pyran-4-yl)thio)methyl)-3,4-dihydroquinazolin-7-yl)oxy)methyl)-[1,4′-bipiperidin]-1′-yl)phenyl)dihydropyrimidine-2,4(1H,3H)-dione formate] | < 30
17 | Cn1nc(N2CCC(=O)NC2=O)c2ccc(N3CCC(N4CCC(COc5cc(F)c6c(=O)[nH]c(COC7CCOCC7)nc6c5)CC4)CC3)c(F)c21 [Example 159, 1-(7-fluoro-6-(4-(((5-fluoro-4-oxo-2-(((tetrahydro-2H-pyran-4-yl)oxy)methyl)-3,4-dihydroquinazolin-7-yl)oxy)methyl)-[1,4′-bipiperidin]-1′-yl)-1-methyl-1H-indazol-3-yl)dihydropyrimidine-2,4(1H,3H)-dione formate] | < 30
18 | O=C1CCN(c2ccc(F)c(N3CCC(N4CC(N5CCC(COc6cc(F)c7c(=O)[nH]c(CSC8CCOCC8)nc7c6)CC5)C4)CC3)c2)C(=O)N1 [Example 165, 1-(4-fluoro-3-(4-(3-(4-(((5-fluoro-4-oxo-2-(((tetrahydro-2H-pyran-4-yl)thio)methyl)-3,4-dihydroquinazolin-7-yl)oxy)methyl)piperidin-1-yl)azetidin-1-yl)piperidin-1-yl)phenyl)dihydropyrimidine-2,4(1H,3H)-dione] | < 30
19 | O=C1CCC(Nc2ccc(N3CCC(O)(CC(=O)N4CCC(COc5cc(F)c6c(=O)[nH]c(CSC7CCOCC7)nc6c5)CC4)CC3)cc2F)C(=O)N1 (stereo not shown) [Example 170, 3-((2-fluoro-4-(4-(2-(4-(((5-fluoro-4-oxo-2-(((tetrahydro-2H-pyran-4-yl)thio)methyl)-3,4-dihydroquinazolin-7-yl)oxy)methyl)piperidin-1-yl)-2-oxoethyl)-4-hydroxypiperidin-1-yl)phenyl)amino)piperidine-2,6-dione] | < 30
